Reference: US20170035708A1, “USE OF N-(4-TERT-BUTYLBENZYL)-3-CHLORO-N-[2-(4-CHLORO-3-ETHYL-PHENYL)-ETHYL]-2-FLUORO-5-TRIFLUOROMETHYL-BENZAMIDE FOR THE TREATMENT OF EYE DISEASES” (Hoffmann-La Roche Inc., priority 2013, published 2017)
Where “and” joins values, the source holds several entries; their conditions need not be identical. Equal values may be shown once.

Assays:
[1] = Pharmacokinetic properties and excretion in the rat; assay type: in vivo
Protocol: (§1) The pharmacokinetic (PK) properties of N-(4-tert-Butyl-benzyl)-3-chloro-N-[2-(4-chloro-3-ethyl-phenyl)-ethyl]-2-fluoro-5-trifluoromethyl-benz-amide were assessed in the rat and cynomolgus monkey. […] The very high protein binding, in combination with moderate membrane permeability, is the likely cause for the low volume of distribution observed in vivo.
(§2) In the rat and cynomolgus monkey, the major excretion route was the bile and feces, independent of the route of administration (approximately 92% of administered dose eliminated). Less than 1% of the dose was eliminated renally.

CETP activity = experiment: In vivo inhibition of CETP activity in hamsters
[2] = target: T1, cholesteryl ester transfer protein (CETP) (Homo sapiens, UniProt P11597); experiment: In vitro inhibition of CETP activity; assay type: biochemical
T1 sequence (P11597 18-493): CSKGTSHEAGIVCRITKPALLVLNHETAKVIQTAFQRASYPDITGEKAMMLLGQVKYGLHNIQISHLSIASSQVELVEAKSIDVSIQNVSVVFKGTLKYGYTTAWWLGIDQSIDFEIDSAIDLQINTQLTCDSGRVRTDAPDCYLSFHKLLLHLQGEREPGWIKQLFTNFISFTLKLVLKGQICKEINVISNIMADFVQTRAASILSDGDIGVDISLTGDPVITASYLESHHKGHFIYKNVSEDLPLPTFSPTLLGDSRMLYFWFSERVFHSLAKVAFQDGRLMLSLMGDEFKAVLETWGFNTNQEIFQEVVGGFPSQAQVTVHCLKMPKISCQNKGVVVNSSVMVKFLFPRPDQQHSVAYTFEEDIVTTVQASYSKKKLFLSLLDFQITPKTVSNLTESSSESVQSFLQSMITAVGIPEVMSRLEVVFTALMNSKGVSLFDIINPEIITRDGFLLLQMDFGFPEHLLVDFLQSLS

[3] = Pharmacokinetic properties and excretion in the cynomolgus monkey; assay type: in vivo
Protocol: as §1, §2

[4] = system: Human umbilical vein endothelial cells (HUVEC); experiment: alamarBlue viability assay in HUVECs; assay type: cell-based; details: 72 h
Protocol: Human umbilical vein endothelial cells (HUVEC), the growth medium EGM and the basal medium EBM was obtained from Lonza. Additional FCS for the starving medium was used form Invitrogen.
The viability assay with alamarBlue® from Invitrogen was done in 96 well gelatin coated plates from BD.
The tested compounds were dissolved in DMSO at a stock concentration of 10 mM.
VEGF-A165 was obtained from R&D Systems® and has been dissolved at a stock concentration of 100 ug/ml in PBS.
HUVECs cells were maintained in Endothial growth medium (EGM) until Passage 5. For the viability assay HUVECs have been seeded in EBM with 0.5% FCS on gelatin coated 96 well plates at a cell density of 11.000 cells/well. Outer wells were left free and have been filled with medium afterwards. Cells were incubated overnight in a cell culture incubator at 37° C. with 5% CO2. Compounds and VEGF have been diluted in EBM/0.5% FCS to a 20× working concentration. 5 ul of the 20× pre-dilution have been added to the cells. HUVECs which have to be intended to grow under hypoxia conditions have been transferred to a cell culture incubator with 1% O2, 5% CO2 and 37° C. HUVECs grown under normoxia conditions were incubated in a normal cell culture incubator. After 72 h, 11 ul of alamarBlue® have been added to each well of the cells subsequently incubated for 4 h in the cell culture incubator. The absorbance has been detected at 570 nm with a reference wavelength of 600 nm.

Membrane permeability = assay type: in vitro ADME
Protocol: as §1

[5] = system: 50 pharmacologically relevant receptors; experiment: Binding screen on 50 pharmacologically relevant receptors; details: concentration of 10 μM
[6] = independent of the route of administration

SMILES: CCc1cc(CCN(Cc2ccc(C(C)(C)C)cc2)C(=O)c2cc(C(F)(F)F)cc(Cl)c2F)ccc1Cl [Compound 1, N-(4-tert-Butyl-benzyl)-3-chloro-N-[2-(4-chloro-3-ethyl-phenyl)-ethyl]-2-fluoro-5-trifluoromethyl-benzamide]
- absolute oral bioavailability [1]: relatively low
- dose eliminated renally [1]: Less than 1%
- gastrointestinal absorption [1]: limited
- terminal half-life [1]: medium to long
- total systemic clearance [1]: low
- volume of distribution [1]: low
- plasma protein binding ([1]; across species): very high
- administered dose eliminated via bile and feces [1, 6]: approximately 92%
- inhibition of CETP activity in vivo (CETP activity): inhibition of CETP activity has been demonstrated
- IC50 [2]: 8 nM and 7.21 nM
- absolute oral bioavailability [3]: relatively low
- dose eliminated renally [3]: Less than 1%
- gastrointestinal absorption [3]: limited
- terminal half-life [3]: medium to long
- total systemic clearance [3]: low
- volume of distribution [3]: low
- plasma protein binding ([3]; across species): very high
- administered dose eliminated via bile and feces [3, 6]: approximately 92%
- alamarBlue assay OD 570 nm-600 nm ([4]; 4.1 nM, hypoxia): −0.0059
- alamarBlue assay OD 570 nm-600 nm ([4]; 4.1 nM, normoxia): 0.0073
- alamarBlue assay OD 570 nm-600 nm ([4]; 10.2 nM, hypoxia): 0.0152
- alamarBlue assay OD 570 nm-600 nm ([4]; 10.2 nM, normoxia): 0.0075
- alamarBlue assay OD 570 nm-600 nm ([4]; 25.6 nM, hypoxia): 0.0144
- alamarBlue assay OD 570 nm-600 nm ([4]; 25.6 nM, normoxia): 0.0056
- alamarBlue assay OD 570 nm-600 nm ([4]; 64 nM, hypoxia): 0.0118
- alamarBlue assay OD 570 nm-600 nm ([4]; 64 nM, normoxia): 0.0062
- alamarBlue assay OD 570 nm-600 nm ([4]; 160 nM, hypoxia): 0.0233
- alamarBlue assay OD 570 nm-600 nm ([4]; 160 nM, normoxia): 0.0127
- alamarBlue assay OD 570 nm-600 nm ([4]; 400 nM, hypoxia): 0.0326
- alamarBlue assay OD 570 nm-600 nm ([4]; 400 nM, normoxia): 0.0223
- alamarBlue assay OD 570 nm-600 nm ([4]; 1000 nM, hypoxia): 0.0967
- alamarBlue assay OD 570 nm-600 nm ([4]; 1000 nM, normoxia): 0.0600
- alamarBlue assay OD 570 nm-600 nm ([4]; 2500 nM, hypoxia): 0.1488
- alamarBlue assay OD 570 nm-600 nm ([4]; 2500 nM, normoxia): 0.1512
- effect on viability of HUVECs ([4]; hypoxia): induced a strong cell survival
- effect on viability of HUVECs ([4]; normoxia): positive effect of viability
- membrane permeability (Membrane permeability): moderate
- binding to 50 pharmacologically relevant receptors [5]: no significant binding
